Laboratory results: ChEMBL document CHEMBL2384942, “Modulation of acridine mutagen ICR191 intercalation to DNA by methylxanthines--analysis with mathematical models” (Bioorg Med Chem, 2013)
Activity calls are given as the source filed them. No cut-off for these calls is given here.

How the values were obtained:
MDBK [1] = assay: Binding affinity to ICR191 in MDBK cells assessed as decrease in molar fraction of free mutagen at 1 to 12 mM by spectrophotometric analysis; type: cell-based
MDBK [2] = assay: Binding affinity to ICR191 in MDBK cells assessed as decrease in formation of mutagen-chromatin complex at 1 to 12 mM by spectrophotometric analysis; type: cell-based
Salmonella typhimurium [3] = assay: Mutagenic activity in Salmonella typhimurium TA98 at 0.1 ug/plate after 4 hrs by Ames test; type: toxicity, organism-based; conditions: salmonella enterica subsp. enterica serovar typhimurium
Salmonella typhimurium [4] = assay: Protective effect in Salmonella typhimurium TA98 assessed as decrease in ICR191-induced mutagenic effect at 0.05 to 2000 ug/plate after 4 hrs by Ames test; type: functional, organism-based; conditions: Salmonella enterica subsp. enterica serovar Typhimurium
Salmonella typhimurium [5] = assay: Mutagenic activity in Salmonella typhimurium TA98 at 2 mg/plate after 4 hrs by Ames test; type: toxicity, organism-based; conditions: salmonella enterica subsp. enterica serovar typhimurium

Cn1c(=O)c2c(ncn2C)n(C)c1=O
Activity (MDBK [1]): Active
Activity (MDBK [2]): Active

COc1ccc2nc3cc(Cl)ccc3c(NCCCNCCCl)c2c1.Cl.Cl.Cl.Cl
Activity (Salmonella typhimurium [3]): Non-toxic

CC(=O)CCCCn1c(=O)c2c(ncn2C)n(C)c1=O [PENTOXIFYLLINE]
Activity (Salmonella typhimurium [4]): Active
Activity (Salmonella typhimurium [5]): Non-toxic
